In patent US20060040917A1, “Benzoxazepine derivatives as selective estrogen receptor modulators” (priority 2004, published 2006):

Columns and labels:
[1] = target: T1, human estrogen receptor α (Homo sapiens, UniProt P03372); assay: Estrogen Receptor α Flash Plate Assay; details: displacement of radio-labeled estrogen (0.5 nM), FlashPlate, 1 h room temperature; read-out: ERα Binding IC50
T1 construct: purchased Panvera
T1 sequence (P03372 1-595): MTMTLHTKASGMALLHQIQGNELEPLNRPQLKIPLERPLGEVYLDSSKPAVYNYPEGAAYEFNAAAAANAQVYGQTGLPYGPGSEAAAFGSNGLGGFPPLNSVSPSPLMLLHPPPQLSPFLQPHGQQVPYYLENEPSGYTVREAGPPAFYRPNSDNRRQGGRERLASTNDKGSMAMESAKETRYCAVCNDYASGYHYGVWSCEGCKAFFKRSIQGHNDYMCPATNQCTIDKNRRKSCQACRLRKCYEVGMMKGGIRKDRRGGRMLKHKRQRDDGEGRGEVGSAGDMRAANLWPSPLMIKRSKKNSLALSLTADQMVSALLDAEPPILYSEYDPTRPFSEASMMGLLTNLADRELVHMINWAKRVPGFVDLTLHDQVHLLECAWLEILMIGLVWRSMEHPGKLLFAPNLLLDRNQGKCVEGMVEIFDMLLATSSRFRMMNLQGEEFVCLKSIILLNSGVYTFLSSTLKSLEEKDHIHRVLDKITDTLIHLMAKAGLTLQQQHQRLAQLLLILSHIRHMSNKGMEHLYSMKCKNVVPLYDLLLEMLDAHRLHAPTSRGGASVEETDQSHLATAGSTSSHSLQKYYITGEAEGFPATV
Protocol: Estrogen Receptor α Flash Plate Assay
This assay monitors binding of radio-labeled estrogen to the estrogen receptor. It is performed on a BioMek 2000 (Beckman). Plates are read in a scintillation counter (Packard TopCount), with decreased counts an indication of binding of a compound to the receptor. The assay was run according to the procedure described by Allan, et al., Anal. Biochem. (1999), 275(2), 243-247.
On day one, 100 μL of Estrogen Screening Buffer (ESB, Panvera) containing 5 mM dithiothreitol (DTT, Panvera), 0.5 μg mouse anti-estrogen receptor monoclonal antibody (SRA-1010, Stressgen) and 50 ng purified human estrogen receptor α (Panvera) were added to each well of a 96 well FlashPlate Plus plate crosslinked with goat anti-mouse antibodies (NEN Life Sciences). The plate was sealed and incubated at 4° C. overnight.
On day two, each well was washed three times with 200 μL PBS, pH 7.2, at room temperature. To each well was then added 98 μL radio-labeled estrogen (0.5 nM, which equals 6 nCi for a 120 Ci/mmol batch, Amersham), diluted in ESB and 5 mM dithiothreitol (DTT). To individual wells were then added 2.5 μL test compound diluted in 30% (v/v) dimethyl sulfoxide/50 mM HEPES, pH 7.5. The wells were mixed three times by aspiration, the plate sealed and incubated at room temperature for one hour. The wells were then counted for 1 min in a TopCount scintillation counter (Packard).
(§1) Representative compound of the present invention were tested according to the procedure described above for binding to the Estrogen Receptor a and Estrogen Receptor β, with results as listed in Table 6.

[2] = target: T2, hER-β (Homo sapiens, UniProt Q92731); assay: Estrogen Receptor β Fluorescence Polarization Assay; details: displacement of Fluormone ES2, fluorescence polarization, 1 h room temperature; read-out: ERβ Binding IC50
T2 construct: purchased Panvera
T2 sequence (Q92731 whole entry): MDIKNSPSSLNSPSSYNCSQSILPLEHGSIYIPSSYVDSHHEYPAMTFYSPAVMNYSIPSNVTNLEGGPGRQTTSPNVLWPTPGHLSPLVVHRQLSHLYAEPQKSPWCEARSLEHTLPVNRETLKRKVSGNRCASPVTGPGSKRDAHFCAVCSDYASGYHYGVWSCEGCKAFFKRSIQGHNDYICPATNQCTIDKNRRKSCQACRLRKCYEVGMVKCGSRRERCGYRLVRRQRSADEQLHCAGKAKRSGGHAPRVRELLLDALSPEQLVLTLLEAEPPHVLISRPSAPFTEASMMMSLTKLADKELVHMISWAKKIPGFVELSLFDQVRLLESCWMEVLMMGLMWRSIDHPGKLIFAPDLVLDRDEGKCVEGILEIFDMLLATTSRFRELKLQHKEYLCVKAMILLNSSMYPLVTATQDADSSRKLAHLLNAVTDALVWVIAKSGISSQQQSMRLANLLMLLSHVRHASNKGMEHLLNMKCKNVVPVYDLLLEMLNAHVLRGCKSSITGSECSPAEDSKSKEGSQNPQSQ
Excerpt: Estrogen Receptor β Fluorescence Polarization Assay
This assay monitors binding of a fluorescent analog of estrogen (Fluormone ES2, Panvera) to the estrogen receptor. Plates are read in a fluorometer that can be set to polarization mode. A decrease in […] relative to vehicle control is an indication of binding of a compound to the receptor.
It is crucial to avoid introduction of air bubbles into the reaction in each well of the 96 well plate throughout this procedure. (Bubbles on the surface of the reaction disrupt light flow, affecting the polarization reading.) However, it is also crucial to effectively mix the reaction components upon addition to the well.
On ice, a 2× standard mixture of Assay Buffer (Panvera), 10 nM DTT and 40 nM ES2 was prepared. On ice, a 2× reaction mixture of Assay Buffer (Panvera), and 20 nM hER-β (Panvera) and 40 nM ES2 was also prepared.
Dilutions of test compound were prepared in 30% (v/v) dimethyl sulfoxide/50 mM HEPES, pH 7.5. At this point, the dilutions were 40× the final required concentration.
The standard mixture at 50 μL was then added to each well. The reaction mixture at 48 μL was added to all wells. The compound dilution at 2.5 μL was added to the appropriate wells. The reaction mixtures were mixed using a manual pipette, a roll of aluminum foil adhesive cover was placed on the plate and the plate incubated at room temperature for 1 hour.
Each well on the plate was then read in an LjL Analyst with an excitation wavelength of […] and an emission wavelength of 538.
as §1

Row | Compound | IC50 [1] [µM] | IC50 [2] [µM]
1 | COc1cccc(C2COc3cc(OC)ccc3N(C(=O)c3ccc(OCCN(C)C)cc3)C2)c1 (centres unmarked) [Compound 8] | 2.9 | > 100
2 | CN(C)CCOc1ccc(C(=O)N2CC(c3cccc(O)c3)COc3cc(O)ccc32)cc1 (centres unmarked) [Compound 9] | 0.53 | 26
3 | Oc1ccc(C2COc3cc(O)ccc3N(Cc3ccc(OCCN4CCCCC4)cc3)C2)cc1 (centres unmarked) [Compound 12, 7-(4-Hydroxy-phenyl)-9-[4-(2-piperidin-1-yl-ethoxy)-benzyl]-6,7,8,9-tetrahydro-5-oxa-9-aza-benzocyclohepten-3-ol] | 0.43 | 1.1
4 | O=C(c1cccc(OCCN2CCCCC2)c1)N1CC(c2cccc(O)c2)COc2cc(O)ccc21 (centres unmarked) [Compound 13, [3-Hydroxy-7-(3-hydroxy-phenyl)-7,8-dihydro-6H-5-oxa-9-aza-benzocyclohepten-9-yl]-[3-(2-piperidin-1-yl-ethoxy)-phenyl]-methanone] | 0.081 | 2.6
5 | O=C(c1ccc(OCCCl)cc1)N1CC(c2cccc(O)c2)COc2cc(O)ccc21 (centres unmarked) [Compound 14] | 0.024 | 1.1
6 | CC(=O)Oc1cccc(C2COc3cc(OC(C)=O)ccc3N(C(=O)c3ccc(OCCCl)cc3)C2)c1 (centres unmarked) [Compound 15] | 0.1 | 2.6
7 | CC(=O)Oc1cccc(C2COc3cc(OC(C)=O)ccc3N(Cc3ccc(OCCN4CCCCC4)cc3)C2)c1 (centres unmarked) [Compound 16] | 0.12 | 0.67
8 | Oc1ccc(C2COc3cc(O)ccc3N(Cc3cccc(OCCCl)c3)C2)cc1 (centres unmarked) [Compound 18, 9-[3-(2-Chloro-ethoxy)-benzyl]-7-(4-hydroxy-phenyl)-6,7,8,9-tetrahydro-5-oxa-9-aza-benzocyclohepten-3-ol] | 0.066 | 0.088
9 | COCOc1ccc(C2COc3cc(OCOC)ccc3N(Cc3cccc(OCCCl)c3)C2)cc1 (centres unmarked) [Compound 19, 9-[3-(2-Chloro-ethoxy)-benzyl]-3-methoxymethoxy-7-(4-methoxymethoxy-phenyl)-6,7,8,9-tetrahydro-5-oxa-9-aza-benzocycloheptene] | > 1 | > 1
10 | COCOc1ccc(C2COc3cc(OCOC)ccc3N(Cc3cccc(OCCN4CCCCC4)c3)C2)cc1 (centres unmarked) [Compound 20, 3-Methoxymethoxy-7-(4-methoxymethoxy-phenyl)-9-[3-(2-piperidin-1-yl-ethoxy)-benzyl]-6,7,8,9-tetrahydro-5-oxa-9-aza-benzocycloheptene] | > 1 | > 1
11 | COCOc1ccc(C2COc3cc(OCOC)ccc3N(Cc3cccc(OCCN4CCOCC4)c3)C2)cc1 (centres unmarked) [Compound 21] | > 1 | > 1
12 | Oc1ccc(C2COc3cc(O)ccc3N(Cc3cccc(OCCN4CCCCC4)c3)C2)cc1 (centres unmarked) [Compound 22, 7-(4-Hydroxy-phenyl)-9-[3-(2-piperidin-1-yl-ethoxy)-benzyl]-6,7,8,9-tetrahydro-5-oxa-9-aza-benzocyclohepten-3-ol] | 0.052 | 0.56
13 | Oc1ccc(C2COc3cc(O)ccc3N(Cc3cccc(OCCN4CCOCC4)c3)C2)cc1 (centres unmarked) [Compound 23] | 0.35 | 0.87
14 | Oc1cccc(C2COc3cc(O)ccc3N(Cc3cccc(OCCCl)c3)C2)c1 (centres unmarked) [Compound 24] | 0.056 | 0.092
15 | Oc1cccc(C2COc3cc(O)ccc3N(Cc3cccc(OCCN4CCCCC4)c3)C2)c1 (centres unmarked) [Compound 25] | 0.022 | 0.3
16 | CC(C)(C)C(=O)Oc1ccc(C2COc3cc(OC(=O)C(C)(C)C)ccc3N(Cc3cccc(OCCN4CCCCC4)c3)C2)cc1 (centres unmarked) [Compound 26] | > 1 | > 1
